The record followed here is the supplement of paper PMC12463676, “Small-molecule dissolution of stress granules by redox modulation benefits ALS models” (Nature Chemical Biology, 2025).

Compound in one assay: NC(=O)CCCCC1CCSS1 [lipoamide]
Kind of assay: thermal stability z-score vs DMSO; higher = more thermally stabilized by treatment. The following applies: HeLa, lipoamide concentration 100 µM. On the procedure:
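Cellular thermal proteome profiling in HeLa cells. Cells were treated with 100 µM lipoamide for 1 h, with or without 1 mM arsenate for a further 1 h, then heated to ten temperatures (37-66.3 °C), and soluble protein was quantified by TMT mass spectrometry relative to 0.1% DMSO controls. The thermal stability score (sum of log2 fold changes minus the abundance score) was transformed to a z-score; mean of n = 3 experiments.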

Compound in a further assay: O=[As]([O-])(O)O.[K+] [potassium arsenate]
The description is as above. The conditions noted are these: HeLa; arsenate concentration 1 mM. On the procedure: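 Cellular thermal proteome profiling in HeLa cells treated with 1 mM arsenate for 1 h (DMSO pretreatment), heated to ten temperatures (37-66.3 °C). Soluble protein was quantified by TMT mass spectrometry relative to DMSO controls; the thermal stability score was transformed to a z-score; mean of n = 3 experiments.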

Setting [1] is: arsenate co-treatment: 1 mM arsenate 1 h.
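Note: each temperature applied for 3 min, abundance score taken as mean log2 fold change at the two lowest temperatures, z-score obtained by mean subtraction and division by SD.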

Sequence of UniProt O95359 (O95359 whole entry): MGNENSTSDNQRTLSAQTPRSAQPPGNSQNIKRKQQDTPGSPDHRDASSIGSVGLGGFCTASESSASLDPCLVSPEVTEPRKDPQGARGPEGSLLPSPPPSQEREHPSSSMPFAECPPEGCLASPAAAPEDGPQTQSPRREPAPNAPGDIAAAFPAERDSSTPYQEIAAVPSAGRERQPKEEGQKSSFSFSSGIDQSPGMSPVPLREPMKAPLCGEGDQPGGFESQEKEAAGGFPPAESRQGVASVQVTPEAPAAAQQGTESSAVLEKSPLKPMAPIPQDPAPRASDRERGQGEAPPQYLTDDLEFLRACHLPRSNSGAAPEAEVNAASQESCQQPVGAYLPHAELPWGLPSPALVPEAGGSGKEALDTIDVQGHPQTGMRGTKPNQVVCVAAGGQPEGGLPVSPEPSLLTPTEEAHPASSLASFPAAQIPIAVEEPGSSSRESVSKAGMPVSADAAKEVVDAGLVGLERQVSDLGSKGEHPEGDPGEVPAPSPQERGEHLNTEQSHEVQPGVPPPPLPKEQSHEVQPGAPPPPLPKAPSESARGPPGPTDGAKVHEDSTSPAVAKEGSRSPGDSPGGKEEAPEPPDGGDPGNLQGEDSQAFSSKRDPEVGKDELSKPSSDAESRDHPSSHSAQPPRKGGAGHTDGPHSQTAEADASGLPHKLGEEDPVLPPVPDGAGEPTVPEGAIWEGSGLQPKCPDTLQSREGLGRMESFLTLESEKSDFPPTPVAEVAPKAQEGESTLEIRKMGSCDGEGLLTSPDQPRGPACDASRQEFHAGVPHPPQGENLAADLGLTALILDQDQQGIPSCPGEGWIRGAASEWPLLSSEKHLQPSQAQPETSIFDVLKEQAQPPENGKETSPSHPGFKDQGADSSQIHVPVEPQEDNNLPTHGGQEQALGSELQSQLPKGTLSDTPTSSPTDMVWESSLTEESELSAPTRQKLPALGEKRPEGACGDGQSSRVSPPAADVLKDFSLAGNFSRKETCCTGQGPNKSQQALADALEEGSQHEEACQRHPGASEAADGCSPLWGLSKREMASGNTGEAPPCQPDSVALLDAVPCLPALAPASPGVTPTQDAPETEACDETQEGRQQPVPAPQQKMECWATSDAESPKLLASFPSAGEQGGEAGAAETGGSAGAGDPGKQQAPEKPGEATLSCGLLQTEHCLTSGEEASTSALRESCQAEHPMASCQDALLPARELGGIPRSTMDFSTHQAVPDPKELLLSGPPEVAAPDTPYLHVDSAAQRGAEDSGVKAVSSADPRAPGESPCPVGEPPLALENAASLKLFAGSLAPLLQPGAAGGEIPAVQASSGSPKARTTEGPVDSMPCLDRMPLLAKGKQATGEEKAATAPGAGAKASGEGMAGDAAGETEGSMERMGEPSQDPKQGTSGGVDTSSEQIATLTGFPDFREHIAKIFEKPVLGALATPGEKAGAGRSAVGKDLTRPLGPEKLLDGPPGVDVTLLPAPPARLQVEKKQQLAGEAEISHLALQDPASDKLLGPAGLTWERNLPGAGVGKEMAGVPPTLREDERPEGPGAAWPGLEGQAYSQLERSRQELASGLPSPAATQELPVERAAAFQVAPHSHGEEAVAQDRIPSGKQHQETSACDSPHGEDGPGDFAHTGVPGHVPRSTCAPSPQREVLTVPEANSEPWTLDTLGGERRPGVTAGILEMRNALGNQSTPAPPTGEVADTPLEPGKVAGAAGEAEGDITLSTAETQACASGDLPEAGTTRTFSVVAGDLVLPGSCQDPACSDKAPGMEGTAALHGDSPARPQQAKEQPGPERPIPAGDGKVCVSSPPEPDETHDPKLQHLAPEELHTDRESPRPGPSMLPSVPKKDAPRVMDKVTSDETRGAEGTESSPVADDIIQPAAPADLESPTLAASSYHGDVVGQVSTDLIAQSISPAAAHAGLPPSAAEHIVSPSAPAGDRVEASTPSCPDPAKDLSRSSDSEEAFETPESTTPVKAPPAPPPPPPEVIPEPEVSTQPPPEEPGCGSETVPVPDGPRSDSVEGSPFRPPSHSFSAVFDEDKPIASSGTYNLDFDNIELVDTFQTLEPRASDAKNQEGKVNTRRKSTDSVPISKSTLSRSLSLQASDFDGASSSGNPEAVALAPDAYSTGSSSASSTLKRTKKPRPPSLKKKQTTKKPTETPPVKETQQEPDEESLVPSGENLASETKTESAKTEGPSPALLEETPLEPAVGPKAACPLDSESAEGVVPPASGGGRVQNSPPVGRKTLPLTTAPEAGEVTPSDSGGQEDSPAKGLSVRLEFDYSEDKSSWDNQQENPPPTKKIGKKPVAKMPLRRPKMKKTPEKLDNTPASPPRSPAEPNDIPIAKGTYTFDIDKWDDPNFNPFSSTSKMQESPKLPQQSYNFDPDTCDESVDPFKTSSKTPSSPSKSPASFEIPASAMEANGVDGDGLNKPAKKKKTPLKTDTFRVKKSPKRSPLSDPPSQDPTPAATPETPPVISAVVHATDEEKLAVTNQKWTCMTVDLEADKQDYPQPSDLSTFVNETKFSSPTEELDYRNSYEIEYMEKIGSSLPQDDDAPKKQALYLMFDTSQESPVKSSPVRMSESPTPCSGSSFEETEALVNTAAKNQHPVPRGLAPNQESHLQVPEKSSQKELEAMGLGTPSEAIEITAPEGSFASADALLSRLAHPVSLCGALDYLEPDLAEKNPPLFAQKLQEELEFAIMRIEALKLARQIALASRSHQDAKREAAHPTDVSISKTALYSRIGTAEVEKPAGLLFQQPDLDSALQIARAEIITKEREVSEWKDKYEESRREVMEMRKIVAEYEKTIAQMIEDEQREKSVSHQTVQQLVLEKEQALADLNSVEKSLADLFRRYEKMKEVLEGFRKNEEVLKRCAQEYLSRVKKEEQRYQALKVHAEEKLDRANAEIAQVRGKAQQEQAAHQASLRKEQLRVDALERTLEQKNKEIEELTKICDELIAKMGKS
Sequence of UniProt P13073 (P13073 whole entry): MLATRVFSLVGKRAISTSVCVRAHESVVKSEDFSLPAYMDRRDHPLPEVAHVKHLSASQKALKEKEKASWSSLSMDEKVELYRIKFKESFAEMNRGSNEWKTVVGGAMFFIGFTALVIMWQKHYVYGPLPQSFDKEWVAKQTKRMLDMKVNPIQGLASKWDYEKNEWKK
Sequence of UniProt Q9NPB8 (Q9NPB8 whole entry): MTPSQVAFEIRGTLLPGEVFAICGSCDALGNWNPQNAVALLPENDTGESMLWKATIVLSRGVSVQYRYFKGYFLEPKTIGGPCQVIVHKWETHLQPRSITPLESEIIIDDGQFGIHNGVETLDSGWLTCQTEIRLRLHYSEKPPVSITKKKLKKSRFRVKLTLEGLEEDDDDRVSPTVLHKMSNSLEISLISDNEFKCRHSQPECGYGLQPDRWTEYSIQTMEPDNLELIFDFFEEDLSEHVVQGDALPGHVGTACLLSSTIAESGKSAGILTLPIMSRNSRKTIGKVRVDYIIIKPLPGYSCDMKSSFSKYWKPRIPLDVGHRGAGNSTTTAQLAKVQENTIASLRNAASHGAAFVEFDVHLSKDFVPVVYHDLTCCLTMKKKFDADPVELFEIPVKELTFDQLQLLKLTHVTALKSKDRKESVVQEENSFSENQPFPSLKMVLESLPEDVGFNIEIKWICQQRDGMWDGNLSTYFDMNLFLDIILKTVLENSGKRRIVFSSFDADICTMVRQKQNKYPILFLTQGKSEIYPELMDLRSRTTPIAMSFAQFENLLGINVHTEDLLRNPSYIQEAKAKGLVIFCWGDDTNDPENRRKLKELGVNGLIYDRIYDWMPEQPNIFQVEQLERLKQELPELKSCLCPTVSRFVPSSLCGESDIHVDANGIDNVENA
Sequence of UniProt P10746 (P10746 whole entry): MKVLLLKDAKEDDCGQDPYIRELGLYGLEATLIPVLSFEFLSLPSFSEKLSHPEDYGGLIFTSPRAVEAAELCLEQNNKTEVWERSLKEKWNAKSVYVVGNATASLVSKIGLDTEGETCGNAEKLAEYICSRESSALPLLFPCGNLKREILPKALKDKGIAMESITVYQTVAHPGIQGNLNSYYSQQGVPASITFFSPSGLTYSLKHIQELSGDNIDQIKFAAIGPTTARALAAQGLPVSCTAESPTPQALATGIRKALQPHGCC
Sequence of UniProt Q9NS23 (Q9NS23 whole entry): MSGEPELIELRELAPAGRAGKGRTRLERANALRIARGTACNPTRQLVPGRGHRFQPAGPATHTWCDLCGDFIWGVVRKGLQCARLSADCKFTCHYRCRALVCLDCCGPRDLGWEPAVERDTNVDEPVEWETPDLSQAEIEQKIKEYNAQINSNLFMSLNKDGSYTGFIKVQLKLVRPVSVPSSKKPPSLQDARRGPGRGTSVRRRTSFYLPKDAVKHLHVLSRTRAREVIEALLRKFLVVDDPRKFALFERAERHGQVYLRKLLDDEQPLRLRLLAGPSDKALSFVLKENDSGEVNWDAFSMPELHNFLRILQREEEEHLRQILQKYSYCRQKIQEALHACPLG
Sequence of UniProt P15291 (P15291 whole entry): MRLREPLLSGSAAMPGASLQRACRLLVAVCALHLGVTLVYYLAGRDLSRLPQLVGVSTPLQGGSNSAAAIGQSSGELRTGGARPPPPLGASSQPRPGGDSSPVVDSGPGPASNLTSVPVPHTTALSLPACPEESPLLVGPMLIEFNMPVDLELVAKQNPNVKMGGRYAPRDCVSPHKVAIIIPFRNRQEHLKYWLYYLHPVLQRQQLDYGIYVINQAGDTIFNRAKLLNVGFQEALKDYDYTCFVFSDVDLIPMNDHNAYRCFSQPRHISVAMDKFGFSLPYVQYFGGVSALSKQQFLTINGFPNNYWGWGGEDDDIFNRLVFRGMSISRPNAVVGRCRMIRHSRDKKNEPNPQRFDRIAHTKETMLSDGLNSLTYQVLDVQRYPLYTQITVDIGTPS
Sequence of UniProt P09669 (P09669 whole entry): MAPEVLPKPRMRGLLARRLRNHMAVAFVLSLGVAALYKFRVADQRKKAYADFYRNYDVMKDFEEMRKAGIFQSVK

Take TSC22D1 (UniProt Q15714): the thermal stability z-score in the assay with lipoamide (setting [1]) came out at 0.404; with lipoamide (arsenate co-treatment: none), 0.657; with potassium arsenate, 0.629.

With RASSF1 (UniProt Q9NS23), the thermal stability z-score is -0.0475 with lipoamide (setting [1]), 0.04 with lipoamide (arsenate co-treatment: none) and -0.089 with potassium arsenate.

Consider MRPS23 (UniProt Q9Y3D9), for which the thermal stability z-score with lipoamide (setting [1]) was -0.268; in the assay with lipoamide (arsenate co-treatment: none) it was 0.352; in the assay with potassium arsenate it was 0.342.

Turning to TNPO2 (UniProt O14787), the thermal stability z-score with lipoamide (setting [1]) was -1.26; in the assay with lipoamide (arsenate co-treatment: none) it was -0.726; with potassium arsenate it was 0.809.

Turning to MOGS (UniProt Q13724), the values for the thermal stability z-score in the assay with lipoamide (setting [1]), with lipoamide (arsenate co-treatment: none) and in the assay with potassium arsenate were -1.24, -0.979 and 0.158, respectively.

Take VARS2 (UniProt Q5ST30): the thermal stability z-score in the assay with lipoamide (setting [1]) was -0.824; with lipoamide (arsenate co-treatment: none), -0.273; with potassium arsenate, 0.279.

Regarding EIF2S2 (UniProt P20042), the thermal stability z-score with lipoamide (setting [1]) was 0.121; in the assay with lipoamide (arsenate co-treatment: none), 0.0416; in the assay with potassium arsenate it was -0.16.

On to COX6C (UniProt P09669), for which the results for the thermal stability z-score in the assay with lipoamide (setting [1]), in the assay with lipoamide (arsenate co-treatment: none) and with potassium arsenate were 0.703, 0.431 and 0.836, respectively.

As to UROS (UniProt P10746), the thermal stability z-score with lipoamide (setting [1]) was -0.306; in the assay with lipoamide (arsenate co-treatment: none) it was -0.445; in the assay with potassium arsenate, -2.43.

As for QTRT1 (UniProt Q9BXR0), the thermal stability z-score with lipoamide (setting [1]) was 0.739; with lipoamide (arsenate co-treatment: none) it was -1.03; in the assay with potassium arsenate, -0.729.

Turning to A0A0C4DFX4|SRCAP, the thermal stability z-score is 0.121 with lipoamide (setting [1]), -0.226 in the assay with lipoamide (arsenate co-treatment: none) and -0.111 with potassium arsenate.

For the target NKIRAS2 (UniProt Q9NYR9), the figures for the thermal stability z-score with lipoamide (setting [1]), with lipoamide (arsenate co-treatment: none) and with potassium arsenate were 0.0549, -0.0133 and 0.137, respectively.

For NPEPPS (UniProt P55786), the values for the thermal stability z-score with lipoamide (setting [1]), with lipoamide (arsenate co-treatment: none) and with potassium arsenate were 0.502, 0.202 and 0.725, respectively.

As to LAMP2 (UniProt P13473), the results for the thermal stability z-score with lipoamide (setting [1]), with lipoamide (arsenate co-treatment: none) and with potassium arsenate were -0.0628, -0.138 and 0.0434, respectively.

Regarding CASP6 (UniProt P55212), the thermal stability z-score came to 1.05 in the assay with lipoamide (setting [1]), 1.33 in the assay with lipoamide (arsenate co-treatment: none) and 0.158 with potassium arsenate.

For the target LACTB (UniProt P83111), the figures for the thermal stability z-score with lipoamide (setting [1]), in the assay with lipoamide (arsenate co-treatment: none) and in the assay with potassium arsenate were -0.437, -0.129 and -0.604, respectively.

For the target NUP98 (UniProt P52948), the thermal stability z-score is -0.415 with lipoamide (setting [1]), -0.292 with lipoamide (arsenate co-treatment: none) and 0.214 with potassium arsenate.

B4GALT1 (UniProt P15291): the results for the thermal stability z-score in the assay with lipoamide (setting [1]), with lipoamide (arsenate co-treatment: none) and with potassium arsenate were -0.454, -0.565 and 0.0478, respectively.

RPL38 (UniProt P63173): the results for the thermal stability z-score in the assay with lipoamide (setting [1]), in the assay with lipoamide (arsenate co-treatment: none) and with potassium arsenate were 0.982, 0.439 and -0.704, respectively.

Turning to USP22 (UniProt Q9UPT9), the results for the thermal stability z-score in the assay with lipoamide (setting [1]), in the assay with lipoamide (arsenate co-treatment: none) and with potassium arsenate were -0.374, 0.131 and 0.237, respectively.

For the target TACC2 (UniProt O95359), the thermal stability z-score with lipoamide (setting [1]) stood at 0.243; with lipoamide (arsenate co-treatment: none), 0.134; with potassium arsenate, 0.409.

MRPS33 (UniProt Q9Y291): the values for the thermal stability z-score in the assay with lipoamide (setting [1]), with lipoamide (arsenate co-treatment: none) and with potassium arsenate were 0.0616, 0.0342 and 0.00906, respectively.

As for GPCPD1 (UniProt Q9NPB8), the thermal stability z-score with lipoamide (setting [1]) turned out to be 0.65; in the assay with lipoamide (arsenate co-treatment: none), 0.136; in the assay with potassium arsenate, 2.8.

Regarding ARL14EP (UniProt Q8N8R7), the thermal stability z-score with lipoamide (setting [1]) was -0.0926; in the assay with lipoamide (arsenate co-treatment: none), -0.15; with potassium arsenate it was -0.3.

For the target RPS18 (UniProt P62269), the thermal stability z-score in the assay with lipoamide (setting [1]) was 0.389; with lipoamide (arsenate co-treatment: none) it was 0.214; with potassium arsenate, -0.81.

Consider TROVE2 (UniProt P10155), for which the thermal stability z-score was -0.23 with lipoamide (setting [1]), -0.235 with lipoamide (arsenate co-treatment: none) and -0.238 in the assay with potassium arsenate.

COX4I1 (UniProt P13073): the thermal stability z-score was determined as 0.239 with lipoamide (setting [1]), 0.296 with lipoamide (arsenate co-treatment: none) and 0.514 in the assay with potassium arsenate.
